# Measured values taken from patent publication US11904051B2, “Shear stress sensitive liposomes” (Universität Basel, priority 2018, dated 2024).
# Several values for one entry are separate records, joined by “and”; a condition that tells them apart may be missing. Equal entries are not always repeated.
# Key:
# Type in all cases: physicochemical
# [1] = Surface pressure/area per molecule isotherms of monolayers on Langmuir-Pockels trough
# Method: The surface pressure/area per molecule isotherm measurements were carried out on a Langmuir-Pockels trough, equipped with a Wilhelmy paper balance (accuracy 0.2 mN/m), at the air-water interface. The isotherms were measured at different subphase temperatures between 5° C. and 25° C. (FIG. 2).
# Above 10 C, a plateau of a mixed expanded/condensed phase transition was observed. The appearance of the plateau is accompanied by a shift of the initial lift-off area per molecule to higher values. The plateau represents the first-order phase transition from a liquid-expanded (LE) to a liquid-condensed (LC) phase. The plateau is not fully horizontal, especially it becomes steeper as the temperature increases. The monolayers themselves are stable over the measurable range of surface pressures up to an instrument-based cut-off at 51 mN/m. From the onset of the plateau it is possible to determine the temperature-dependent main transition pressure Πt. For 1,3-diheptadecanamidopropan-2-yl (2-(trimethylammonio) ethyl) phosphate this dependence can be described by a linear function (FIG. 3). The experimental data only deviates from this linear function in close vicinity of the minimum transition temperature T0 below which the transition into a condensed phase directly starts from the gas-analog state (re-sublimation process). […]
# [2] = Cryo-TEM of large unilamellar vesicles made of Rad-PC-Rad; conditions: 509 membrane cuts in cryo-TEM image
# Method: The inventors measured the cryo-TEM images according to a previously described protocol (Ishikawa et al, J. Mol. Biol. 2007, 368 (5), 1249-1258). The cryo-TEM images recorded from large unilamellar vesicles (LUV) entirely made of Rad-PC-Rad, show a significant number of strongly facetted shapes below the membranes' main phase transition temperature of the membranes (Tm≈45° C.) (FIGS. 6 and 7). The ratio between facetted and spherical vesicles calculated from FIG. 6 is 21:4.
# The interdigitation of the leaflets in a membrane can be directly measured from lateral cuts through the membrane in the cryo-TEM image (FIG. 6). To collect statistically relevant data, the inventors measured 509 membrane cuts (FIG. 6) with a mean membrane thickness of 3.20 nm±0.02 nm (N=509). With two times 0.7 nm for the headgroups, the hydrophobic layer is 1.8 nm thick. An all-trans alkyl chain of 16 C-atoms has a length of 2.05 nm. Thus, the alkyl chains would have a tilt angle of 64°, which is physically absurd. Therefore, a full bilayer interdigitation can be assumed.
# [3] = Dynamic light scattering of liposomes (Delsa Nano C); conditions: 25 ° C.
# Method: The lipid concentration of the two formulations was determined using the phosphate test (Stalder and Zumbuehl. CHIMIA International Journal for Chemistry 2013, 67, 819-821). Size and size distribution of the liposomes were quantified by means of dynamic light scattering (DLS) using a Delsa Nano C (Beckman Coulter, USA). DLS measurements were performed at a temperature of 25° C., using two laser diodes working at a wavelength of 658 nm. The scattering angle was set to 165 degrees. Cryo-TEM images of Pad-PC-Pad liposomal suspension were taken by mounting the liposomal suspension on glow-discharged holey carbon grids, quickly frozen by a Cryoplunge CP3 system (Gatan, USA), and transferred to a JEM2200FS transmission electron microscope (JEOL, Japan) using a Gatan626 cryo-holder. Cryo-TEM micrographs were recorded at an acceleration voltage of 200 kV at a magnification of 20,000, 4-8 μm under-focus, and a dose of 10 electrons=Å^2, using a F416 CMOS detector (TVIPS, Germany).
# [4] = SAXS measurement of liposomes under static conditions (glass capillary); conditions: static condition
# From the text: The investigated q-range between 0:02 nm^−1 and 1:65 nm^−1 corresponds to real-space distances d between 314 and 3 nm and, therefore, covers almost the entire nanometer range relevant for the characterization of the liposomes. The diagrams in FIG. 11 show the radially integrated scattering signal of DPPC-DSPE/PEG (top panel) and Pad-PC-Pad (bottom panel) liposomes acquired in suitable glass capillaries.
# Suitable models are often utilized in the interpretation of the scattering signal of the system investigated. Herein, the scattering curves of DPPC/DSPE-PEG and Pad-PC-Pad were both fitted using a decoupling approach, which allowed to factorize the total form factor as product of a cross section term for long dimension and a cross section term for shorter dimension (Porod et al., IV. Acta Physica Austriaca 1948, 2, 255-292). To fit the form factor related to the overall shape of DPPC/DSPE-PEG, a thin spherical shell model was used (Breÿler et al., Journal of Applied Crystallography 2015, 48, 1587-1598), whereas the intensity peak related to the bilayer was fitted using a function for a bilayer with a Gaussian electron density profile (Pabst et al., Journal of Applied Crystallography 2003, 36, 1378-1388; Pabst et al., Physical Review E 2000, 62, 4000). The model utilized to fit the bilayer provided the bilayer thickness as the distance head-to-head dhh between the two phospholipid heads and the standard deviation over the phoshpolipid heads.
# To fit the form factor related to the overall shape of Pad-PC-Pad a thin ellipsoidal shell model was used (Olson et al., Biochimica et Biophysica Acta (BBA)—Biomembranes 1979, 557, 9-23). An eccentricity E of 0.43 was found. As for DPPC/DSPE-PEG, the intensity peak related to the phospholipid head-to-head distance dhh was fitted using a function for a bilayer with a Gaussian electron density profile (Pabst et al., Journal of Applied Crystallography 2003, 36, 1378-1388; Pabst et al., Physical Review E 2000, 62, 4000) and a normal distribution over dhh. […]
Compound,minimum transition temperature T0 of monolayer ([1]; air-water interface) [°C],critical temperature of monolayers ([1]; extrapolation of ΔS to zero) [K],mean membrane thickness [2] [nm],mean diameter (DLS) [3],polydispersity index (PDI) [3],head-to-head distance dhh ([4]; bilayer Gauss electron density profile model),"Radius of gyration Rg ([4]; glass capillary, flow rate 0)",eccentricity ε ([4]; thin ellipsoidal shell model)
"CCCCCCCCCCCCCCCCC(=O)NCC(CNC(=O)CCCCCCCCCCCCCCCC)OP(=O)([O-])OCC[N+](C)(C)C [Rad-PC-Rad, 1,3-diheptadecanamidopropan-2-yl (2-(trimethylammonio)ethyl) phosphate]",11.2,306.3,3.20,,,,,
"CCCCCCCCCCCCCCCC(=O)NCC(CNC(=O)CCCCCCCCCCCCCCC)OP(=O)([O-])OCC[N+](C)(C)C [Pad-PC-Pad, 1,3-palmitoylamido-1,3-deoxy-sn-glycero-2-phosphatidylcholine]",,,,131.6+/−0.9 nm,0.103+/−0.009,3.3±0.8 nm and 3.3 nm,60.3 nm and 60.3 ± 0.4 nm,0.43
